Each block holds one compound with its values, some of them ahead of it.
Key:
Adenosine receptor A3 = target: T1, Adenosine receptor A3 (Homo sapiens, UniProt P0DMS8)
T1 sequence (P0DMS8 whole entry): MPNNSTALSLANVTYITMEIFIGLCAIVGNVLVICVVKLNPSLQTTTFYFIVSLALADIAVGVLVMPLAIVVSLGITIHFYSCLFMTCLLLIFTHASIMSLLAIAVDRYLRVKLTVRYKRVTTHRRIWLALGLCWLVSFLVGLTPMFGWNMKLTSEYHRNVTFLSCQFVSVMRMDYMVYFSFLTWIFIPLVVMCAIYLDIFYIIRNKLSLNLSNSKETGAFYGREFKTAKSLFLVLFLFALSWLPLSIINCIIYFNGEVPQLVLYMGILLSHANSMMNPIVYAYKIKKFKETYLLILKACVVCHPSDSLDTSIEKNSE

Estrogen receptor = target: T2, Estrogen receptor (Homo sapiens, UniProt P03372); type: functional
T2 sequence (P03372 whole entry): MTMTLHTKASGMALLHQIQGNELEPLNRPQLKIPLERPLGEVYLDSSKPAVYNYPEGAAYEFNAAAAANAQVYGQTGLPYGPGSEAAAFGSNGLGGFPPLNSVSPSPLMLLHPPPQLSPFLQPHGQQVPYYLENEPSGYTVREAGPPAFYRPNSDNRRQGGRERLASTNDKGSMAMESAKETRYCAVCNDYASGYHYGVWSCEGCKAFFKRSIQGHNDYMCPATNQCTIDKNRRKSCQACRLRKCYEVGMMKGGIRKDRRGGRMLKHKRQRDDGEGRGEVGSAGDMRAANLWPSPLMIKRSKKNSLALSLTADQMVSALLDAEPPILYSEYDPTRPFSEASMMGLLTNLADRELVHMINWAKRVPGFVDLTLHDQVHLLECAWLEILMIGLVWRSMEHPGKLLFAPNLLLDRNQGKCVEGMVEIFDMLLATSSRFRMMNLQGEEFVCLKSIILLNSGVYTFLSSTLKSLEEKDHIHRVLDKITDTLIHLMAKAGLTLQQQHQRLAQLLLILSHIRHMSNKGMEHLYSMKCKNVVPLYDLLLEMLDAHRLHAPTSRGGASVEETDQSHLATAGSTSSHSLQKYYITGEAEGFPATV

Adenosine receptor A1 = target: T3, Adenosine receptor A1 (Homo sapiens, UniProt P30542)
T3 sequence (P30542 whole entry): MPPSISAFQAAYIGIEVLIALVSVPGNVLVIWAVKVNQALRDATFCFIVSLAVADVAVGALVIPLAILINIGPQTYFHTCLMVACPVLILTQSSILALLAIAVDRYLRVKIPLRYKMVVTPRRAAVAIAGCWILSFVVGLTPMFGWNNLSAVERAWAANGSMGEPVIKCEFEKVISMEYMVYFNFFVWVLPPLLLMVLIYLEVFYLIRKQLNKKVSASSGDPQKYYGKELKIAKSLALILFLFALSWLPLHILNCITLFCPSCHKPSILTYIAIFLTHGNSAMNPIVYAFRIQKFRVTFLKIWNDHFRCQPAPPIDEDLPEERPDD

[1] = target: T4, Retinoic acid receptor alpha (Homo sapiens, UniProt P10276); type: functional, cell-based
T4 sequence (P10276 whole entry): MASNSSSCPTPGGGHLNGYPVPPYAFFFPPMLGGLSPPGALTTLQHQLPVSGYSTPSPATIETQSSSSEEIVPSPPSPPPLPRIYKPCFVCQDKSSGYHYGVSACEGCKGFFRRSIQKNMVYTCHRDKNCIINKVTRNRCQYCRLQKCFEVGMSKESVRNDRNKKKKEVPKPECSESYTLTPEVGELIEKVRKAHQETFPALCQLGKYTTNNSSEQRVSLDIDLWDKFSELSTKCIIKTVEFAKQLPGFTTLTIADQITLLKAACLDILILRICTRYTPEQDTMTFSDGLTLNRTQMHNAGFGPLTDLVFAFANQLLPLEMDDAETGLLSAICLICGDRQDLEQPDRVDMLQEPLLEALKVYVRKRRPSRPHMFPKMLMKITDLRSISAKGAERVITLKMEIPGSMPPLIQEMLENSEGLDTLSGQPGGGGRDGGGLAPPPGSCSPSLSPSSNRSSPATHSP

[2] = target: T5, Oxysterols receptor LXR-alpha (Homo sapiens, UniProt Q13133); type: functional
T5 sequence (Q13133 whole entry): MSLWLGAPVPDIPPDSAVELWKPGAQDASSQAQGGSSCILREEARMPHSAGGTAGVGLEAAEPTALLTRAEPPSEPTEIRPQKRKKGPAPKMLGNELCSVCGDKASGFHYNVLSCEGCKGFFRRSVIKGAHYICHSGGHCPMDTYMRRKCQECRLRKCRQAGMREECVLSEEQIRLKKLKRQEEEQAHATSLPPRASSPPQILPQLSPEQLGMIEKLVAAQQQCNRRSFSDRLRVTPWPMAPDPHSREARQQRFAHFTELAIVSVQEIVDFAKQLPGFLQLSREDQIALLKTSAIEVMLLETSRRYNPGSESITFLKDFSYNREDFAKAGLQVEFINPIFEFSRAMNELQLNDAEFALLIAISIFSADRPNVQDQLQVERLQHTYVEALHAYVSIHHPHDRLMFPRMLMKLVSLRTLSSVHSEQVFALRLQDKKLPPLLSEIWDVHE

[3] = target: T6, Nuclear receptor subfamily 1 group I member 3 (Homo sapiens, UniProt Q14994); type: functional
T6 sequence (Q14994 whole entry): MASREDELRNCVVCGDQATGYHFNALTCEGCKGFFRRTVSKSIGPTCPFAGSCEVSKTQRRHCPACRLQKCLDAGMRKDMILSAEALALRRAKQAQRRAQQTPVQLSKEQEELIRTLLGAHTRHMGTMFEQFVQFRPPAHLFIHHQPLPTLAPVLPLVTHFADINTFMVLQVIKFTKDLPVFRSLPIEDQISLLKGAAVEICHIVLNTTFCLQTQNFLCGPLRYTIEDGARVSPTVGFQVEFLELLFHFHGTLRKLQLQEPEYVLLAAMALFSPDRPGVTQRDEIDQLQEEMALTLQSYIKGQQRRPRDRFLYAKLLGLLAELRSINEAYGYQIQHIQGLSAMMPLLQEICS
Further: assay procedure not described here.

Compound: Nc1nc2ccc(OC(F)(F)F)cc2s1 [RILUZOLE]
AC50 (Adenosine receptor A3): 29.2 µM

AC50 (Estrogen receptor): > 30 µM
Compound: [H]/N=C(/N)c1ccc(NCc2nc3cc(C(=O)N(CCC(=O)O)c4ccccn4)ccc3n2C)cc1 [DABIGATRAN]

AC50 (Adenosine receptor A1): > 30 µM
Compound: BIVALIRUDIN

AC50 [1]: > 30 µM | AC50 [2]: > 30 µM | AC50 [3]: > 10 µM
Compound: CC(C)c1c(C(=O)Nc2ccccc2)c(-c2ccccc2)c(-c2ccc(F)cc2)n1CC[C@@H](O)C[C@@H](O)CC(=O)O [ATORVASTATIN]

— ChEMBL document CHEMBL5291721, “A preclinical secondary pharmacology resource illuminates target-adverse drug reaction associations of marketed drugs” (Nat Commun, 2023)
